# Columns and labels:
# hNav1.7 = hNav1.7 (Homo sapiens, UniProt Q15858); assay: cell-based; assay type: cell-based; details: Table 12; PatchXpress, tonic block; read-out: PX hNav1.7 Tonic IC50
# hNav1.4 = hNav1.4 (Homo sapiens, UniProt P35499); assay: cell-based; assay type: cell-based; details: Table 12; for IC50: PatchXpress, tonic block, read-out: PX hNav1.4 Tonic IC50; for Nav1.4/Nav1.7: ratio of PX tonic IC50 values
# hNav1.4, sequence (P35499 whole entry): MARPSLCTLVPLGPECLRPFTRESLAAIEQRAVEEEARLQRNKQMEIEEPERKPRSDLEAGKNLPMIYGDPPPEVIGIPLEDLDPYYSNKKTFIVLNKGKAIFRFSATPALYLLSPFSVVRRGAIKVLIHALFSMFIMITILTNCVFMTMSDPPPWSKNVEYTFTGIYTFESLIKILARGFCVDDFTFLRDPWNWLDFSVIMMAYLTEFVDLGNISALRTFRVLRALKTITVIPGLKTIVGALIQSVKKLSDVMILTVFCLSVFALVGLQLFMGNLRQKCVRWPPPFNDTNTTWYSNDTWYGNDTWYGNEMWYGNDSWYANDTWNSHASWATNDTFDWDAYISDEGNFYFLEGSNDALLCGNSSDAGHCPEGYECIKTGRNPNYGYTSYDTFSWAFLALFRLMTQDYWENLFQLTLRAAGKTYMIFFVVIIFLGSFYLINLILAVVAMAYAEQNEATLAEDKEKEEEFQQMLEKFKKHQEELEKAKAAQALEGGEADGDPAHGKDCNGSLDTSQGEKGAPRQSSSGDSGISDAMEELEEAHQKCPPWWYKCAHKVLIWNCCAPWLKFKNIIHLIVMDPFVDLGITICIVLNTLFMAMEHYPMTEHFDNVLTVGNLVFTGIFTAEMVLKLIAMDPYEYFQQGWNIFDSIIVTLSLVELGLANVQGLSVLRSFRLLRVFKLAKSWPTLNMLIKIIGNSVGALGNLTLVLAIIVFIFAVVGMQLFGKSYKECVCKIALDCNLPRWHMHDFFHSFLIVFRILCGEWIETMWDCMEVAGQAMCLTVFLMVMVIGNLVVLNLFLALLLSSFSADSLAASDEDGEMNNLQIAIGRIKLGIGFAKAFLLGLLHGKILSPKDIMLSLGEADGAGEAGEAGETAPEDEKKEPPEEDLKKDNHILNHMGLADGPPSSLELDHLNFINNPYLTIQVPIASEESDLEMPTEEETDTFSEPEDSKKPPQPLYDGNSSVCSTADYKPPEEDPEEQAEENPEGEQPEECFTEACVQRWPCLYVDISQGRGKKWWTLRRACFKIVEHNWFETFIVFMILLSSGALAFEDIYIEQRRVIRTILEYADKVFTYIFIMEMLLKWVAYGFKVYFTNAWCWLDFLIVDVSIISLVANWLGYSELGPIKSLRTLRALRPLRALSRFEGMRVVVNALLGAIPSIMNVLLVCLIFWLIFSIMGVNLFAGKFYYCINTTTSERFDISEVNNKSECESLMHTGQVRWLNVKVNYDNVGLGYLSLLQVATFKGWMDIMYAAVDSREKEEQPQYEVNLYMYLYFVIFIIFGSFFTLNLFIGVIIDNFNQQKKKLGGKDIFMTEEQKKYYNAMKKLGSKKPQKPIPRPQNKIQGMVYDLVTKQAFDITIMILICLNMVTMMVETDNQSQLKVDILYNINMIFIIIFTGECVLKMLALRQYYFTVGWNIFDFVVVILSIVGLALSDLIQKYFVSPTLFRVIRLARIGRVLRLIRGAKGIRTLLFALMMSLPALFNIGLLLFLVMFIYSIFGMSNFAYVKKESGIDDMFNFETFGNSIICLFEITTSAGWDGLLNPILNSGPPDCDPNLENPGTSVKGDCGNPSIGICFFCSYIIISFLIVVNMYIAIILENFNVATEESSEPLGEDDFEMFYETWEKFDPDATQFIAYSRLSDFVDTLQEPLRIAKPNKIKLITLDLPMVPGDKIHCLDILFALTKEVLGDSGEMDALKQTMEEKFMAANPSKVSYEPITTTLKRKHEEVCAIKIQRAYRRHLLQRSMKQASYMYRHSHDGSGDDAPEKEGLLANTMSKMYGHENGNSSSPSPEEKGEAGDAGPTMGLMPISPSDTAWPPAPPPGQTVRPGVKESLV
# hNav1.7, sequence (Q15858 whole entry): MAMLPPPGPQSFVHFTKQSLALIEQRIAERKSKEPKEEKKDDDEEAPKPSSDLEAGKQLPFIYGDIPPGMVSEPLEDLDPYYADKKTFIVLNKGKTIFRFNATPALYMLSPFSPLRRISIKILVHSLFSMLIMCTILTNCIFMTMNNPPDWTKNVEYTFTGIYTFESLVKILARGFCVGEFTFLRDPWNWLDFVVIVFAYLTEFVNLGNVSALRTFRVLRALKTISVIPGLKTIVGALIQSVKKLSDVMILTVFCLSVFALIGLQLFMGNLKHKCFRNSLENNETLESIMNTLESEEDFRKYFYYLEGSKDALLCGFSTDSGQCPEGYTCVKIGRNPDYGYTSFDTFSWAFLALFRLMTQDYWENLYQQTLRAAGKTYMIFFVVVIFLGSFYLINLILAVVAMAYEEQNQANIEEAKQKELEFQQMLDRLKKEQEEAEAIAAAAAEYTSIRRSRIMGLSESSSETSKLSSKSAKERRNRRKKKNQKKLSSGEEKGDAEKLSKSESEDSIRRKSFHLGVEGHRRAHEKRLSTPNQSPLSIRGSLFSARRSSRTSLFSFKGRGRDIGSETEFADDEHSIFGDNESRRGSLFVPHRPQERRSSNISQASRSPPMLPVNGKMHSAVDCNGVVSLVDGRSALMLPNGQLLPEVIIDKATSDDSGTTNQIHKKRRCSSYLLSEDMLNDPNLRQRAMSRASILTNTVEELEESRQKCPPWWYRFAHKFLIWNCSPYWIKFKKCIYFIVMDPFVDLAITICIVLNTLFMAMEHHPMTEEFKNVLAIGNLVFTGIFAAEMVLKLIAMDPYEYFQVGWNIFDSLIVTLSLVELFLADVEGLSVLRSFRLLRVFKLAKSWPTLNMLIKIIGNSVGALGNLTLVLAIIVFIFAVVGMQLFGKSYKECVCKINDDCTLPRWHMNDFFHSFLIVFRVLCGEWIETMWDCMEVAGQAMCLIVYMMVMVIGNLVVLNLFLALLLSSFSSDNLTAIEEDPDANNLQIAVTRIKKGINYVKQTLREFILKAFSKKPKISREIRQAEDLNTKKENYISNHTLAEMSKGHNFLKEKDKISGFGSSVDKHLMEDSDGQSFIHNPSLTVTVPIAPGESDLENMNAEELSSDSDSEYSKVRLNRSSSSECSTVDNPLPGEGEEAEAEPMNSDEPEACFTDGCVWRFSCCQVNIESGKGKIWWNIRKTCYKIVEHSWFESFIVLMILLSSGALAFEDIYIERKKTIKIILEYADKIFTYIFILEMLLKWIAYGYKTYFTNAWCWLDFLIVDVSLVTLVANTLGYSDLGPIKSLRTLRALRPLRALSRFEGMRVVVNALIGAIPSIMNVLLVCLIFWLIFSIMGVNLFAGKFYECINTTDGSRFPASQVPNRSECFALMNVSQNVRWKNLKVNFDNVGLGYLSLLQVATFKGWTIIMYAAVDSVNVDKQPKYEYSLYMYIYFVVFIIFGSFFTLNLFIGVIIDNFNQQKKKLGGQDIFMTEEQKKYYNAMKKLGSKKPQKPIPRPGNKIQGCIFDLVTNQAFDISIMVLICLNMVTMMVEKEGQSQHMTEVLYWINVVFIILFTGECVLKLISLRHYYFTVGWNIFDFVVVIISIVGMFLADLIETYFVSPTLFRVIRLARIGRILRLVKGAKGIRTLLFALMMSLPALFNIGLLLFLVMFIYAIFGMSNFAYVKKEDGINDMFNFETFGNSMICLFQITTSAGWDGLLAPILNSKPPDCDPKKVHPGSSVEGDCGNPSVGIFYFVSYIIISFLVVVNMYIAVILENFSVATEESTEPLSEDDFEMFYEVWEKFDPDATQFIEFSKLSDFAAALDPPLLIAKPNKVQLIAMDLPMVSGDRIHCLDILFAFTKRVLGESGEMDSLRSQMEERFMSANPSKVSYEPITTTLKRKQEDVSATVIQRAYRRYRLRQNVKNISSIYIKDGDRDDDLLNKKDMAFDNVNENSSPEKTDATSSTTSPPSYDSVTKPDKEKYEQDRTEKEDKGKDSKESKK
Structure (SMILES),IC50 (hNav1.7) [nM],IC50 (hNav1.4) [nM],Nav1.4/Nav1.7 (hNav1.4)
C#CC[C@H](N)C(=O)N[C@@H](CCC(=O)O)C(=O)N[C@H]1CSSC[C@@H]2NC(=O)[C@@H]3CSSC[C@@H](C(=O)N[C@@H](CCCNC(=N)N)C(=O)N[C@@H](CCCCN)C(=O)N[C@@H](CCC(=O)O)C(=O)N[C@H](C(N)=O)[C@@H](C)CC)NC(=O)[C@H](Cc4c[nH]c5ccccc45)NC(=O)[C@H](CC(C)C)NC(=O)[C@H](CCCCN)NC(=O)[C@H](CSSC[C@H](NC(=O)[C@H]([C@@H](C)O)NC(=O)[C@H](Cc4c[nH]c5ccccc45)NC(=O)[C@H](CCCC)NC(=O)[C@H](Cc4c[nH]c5ccccc45)NC(=O)[C@H](CCCCN)NC(=O)[C@H](CCC(N)=O)NC1=O)C(=O)N[C@@H](CC(=O)O)C(=O)N[C@@H](CCC(=O)O)C(=O)N[C@@H](CCCCN)C(=O)N[C@@H](CCCNC(=N)N)C(=O)N[C@@H](CCC(=O)O)C(=O)N3)NC(=O)[C@H](CCCNC(=N)N)NC(=O)[C@H](CC(C)C)NC(=O)CNC(=O)[C@H](CCC(=O)O)NC2=O [compound 751],10.2,1920,189
C#CC[C@H](N)C(=O)N[C@@H](Cc1ccc(O)cc1)C(=O)N[C@H]1CSSC[C@@H]2NC(=O)[C@@H]3CSSC[C@@H](C(=O)N[C@@H](CCCNC(=N)N)C(=O)N[C@@H](CCCCN)C(=O)N[C@@H](CCC(=O)O)C(=O)N[C@H](C(=O)NCC(=O)O)[C@@H](C)CC)NC(=O)[C@H](Cc4c[nH]c5ccccc45)NC(=O)[C@H](CC(C)C)NC(=O)[C@H](CCCCN)NC(=O)[C@H](CSSC[C@H](NC(=O)[C@H]([C@@H](C)O)NC(=O)[C@H](Cc4c[nH]c5ccccc45)NC(=O)[C@H](CCCC)NC(=O)[C@H](Cc4c[nH]c5ccccc45)NC(=O)[C@H](CCCCN)NC(=O)[C@H](CCC(N)=O)NC1=O)C(=O)N[C@@H](CC(=O)O)C(=O)N[C@@H](CO)C(=O)N[C@@H](CCCCN)C(=O)N[C@@H](CCCNC(=N)N)C(=O)N[C@@H](C)C(=O)N3)NC(=O)[C@H](CCCNC(=N)N)NC(=O)[C@H](CC(C)C)NC(=O)CNC(=O)[C@H](CCC(=O)O)NC2=O [compound 828],8.34,1760,211
C#CC[C@H](N)C(=O)N[C@@H](Cc1ccc(O)cc1)C(=O)N[C@H]1C[Se][Se]C[C@@H]2NC(=O)[C@@H]3CSSC[C@@H](C(=O)N[C@@H](CCCNC(=N)N)C(=O)N[C@@H](CCCCN)C(=O)N[C@@H](CCC(=O)O)C(=O)N[C@H](C(N)=O)[C@@H](C)CC)NC(=O)[C@H](Cc4c[nH]c5ccccc45)NC(=O)[C@H](CC(C)C)NC(=O)[C@H](CCCCN)NC(=O)[C@H](CSSC[C@H](NC(=O)[C@H]([C@@H](C)O)NC(=O)[C@H](Cc4c[nH]c5ccccc45)NC(=O)[C@H](CCCC)NC(=O)[C@H](Cc4c[nH]c5ccccc45)NC(=O)[C@H](CCCCN)NC(=O)[C@H](CCC(N)=O)NC1=O)C(=O)N[C@@H](CC(=O)O)C(=O)N[C@@H](CO)C(=O)N[C@@H](CCCCN)C(=O)N[C@@H](CCCNC(=N)N)C(=O)N[C@@H](C)C(=O)N3)NC(=O)[C@H](CCCNC(=N)N)NC(=O)[C@H](CC(C)C)NC(=O)CNC(=O)[C@H](CCC(=O)O)NC2=O [compound 838],0.949,58.1,61
C#CC[C@H](N)C(=O)N[C@@H](Cc1ccc(O)cc1)C(=O)N[C@H]1CSSC[C@@H]2NC(=O)[C@@H]3CSSC[C@@H](C(=O)N[C@@H](CCCNC(=N)N)C(=O)N[C@@H](CCCCN)C(=O)N[C@@H](CCC(=O)O)C(=O)N[C@H](C(N)=O)[C@@H](C)CC)NC(=O)[C@H](Cc4c[nH]c5ccccc45)NC(=O)[C@H](CC(C)C)NC(=O)[C@H](CCCCN)NC(=O)[C@H](CSSC[C@H](NC(=O)[C@H]([C@@H](C)O)NC(=O)[C@H](Cc4ccccc4)NC(=O)[C@H](CCCC)NC(=O)[C@H](Cc4c[nH]c5ccccc45)NC(=O)[C@H](CCCCN)NC(=O)[C@H](CCC(N)=O)NC1=O)C(=O)N[C@@H](CC(=O)O)C(=O)N[C@@H](CO)C(=O)N[C@@H](CCCCN)C(=O)N[C@@H](CCCNC(=N)N)C(=O)N[C@@H](C)C(=O)N3)NC(=O)[C@H](CCCNC(=N)N)NC(=O)[C@H](CC(C)C)NC(=O)CNC(=O)[C@H](CCC(=O)O)NC2=O [compound 848],12.6,1010,80

# Source: patent publication US10344060B2 (priority 2013, dated 2019)
